According to US20070254859A1 (priority 2006, published 2007):

Key:
[1] = in vivo; settings: male, Wistar-Hannover, rat, plasma, po, 12 mg/kg
Description: Male, Wistar-Hannover rats (257-313 g) were used; animals were cannulated in the jugular vein for blood sampling. Animals were individually housed at 18-26° C. with 30-70% humidity. Animals were allowed free movement and access to water with 12 h dark and light cycles. Dosing was 2-4 h after the beginning of a light cycle and dosing time across each group was consistent. All animals had access to water, ad libitum, and were fasted 8 h prior to dosing; food was returned 5 h post-dose. Animals were dosed using a 1 mL syringe. Group 1, the intravenous group (raloxifene, 2.5 mg/kg), was dosed using an infusion rate of ˜0.3 mL per minute.
Sampling—using an AccuSampler®, blood samples (˜120 μL) were collected from 4 animals/group/time point from a catheter inserted into the jugular vein. Blood samples were taken and removed blood volume was replaced by an equivalent volume of intraperitoneal saline after each draw. Blood samples were centrifuged and plasma transferred into a designated well of a 96-well plate. Samples were kept frozen (−80±10° C.) until sample preparation and HPLC/MS/MS analysis.
Internal standard (IS) solution was prepared in a 500 mL volumetric flask containing 1:1 v/v acetonitrile:methanol and ˜0.04 μM of saquinavir base. Individually, the 96-well plates were removed from the freezer (−80±10° C.) and allowed to warm to ambient temperature (˜45-50 min). The in vivo plasma samples, either 25 or 50 μL, were transferred into separate 1.5 mL micro-centrifuge tubes. Total plasma volume was brought to ˜100 μL by adding male Wistar-Hannover plasma (potassium EDTA). Subsequently, 200 μL of IS solution was added, capped, mixed (˜5 sec) and centrifuged at 13,200 rpm for 10 mm using an Eppendorf minispin centrifuge. The supernatant (˜250 μL) was transferred into individual wells of a 96-well plate. The 96-well plate was sealed and centrifuged at 3000 rpm for 10 min at 10° C. […] The 96-well plate was then placed into the auto-sampler cool-stack (˜6° C.) and analyzed via LC/MS/MS. Raloxifene, and raloxifene glucuronide standard curves and quality control (QC's) samples were prepared in an analogous way as described above. […] The limit of detection (LOD) for raloxifene was ˜0.2 ng/mL while the glucuronides were ˜0.1 ng/mL.

[2] = test system: Caco-2 cells; settings: compound 30 μM on both sides, Rhodamine 123 10 μM, Bl-Ap direction, Caco-2 monolayers; read from FIG. 2

| Compound | AUC(0-t) [1] [ng·h/mL] | Cmax [1] [ng/mL] | Tmax [1] [h] | bioavailability [1] [%] | RHO in vitro efflux inhibition [2] [%] |
| --- | --- | --- | --- | --- | --- |
| O=C(c1ccc(OCCN2CCCCC2)cc1)c1c(-c2ccc(O)cc2)sc2cc(O)ccc12 [raloxifene] | 452 | 50 to 60 | ~4 | 3.6 ± 0.8 | – |
| d-α-tocopheryl polyethylene glycol succinate [TPGS 1000] | – | – | – | – | ~40 |
